Data reported in PubChem BioAssay (NCI).
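Exposure lasted 48 hours, with cells grown in 96-well plates and compounds tested at five concentrations. Abbreviation: GI50, concentration required for 50% inhibition of growth. Definition used: TGI = concentration required for complete inhibition of growth.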 Where a SMILES comes first, the peptide text is derived from it. [ ]: non-standard residue; d: D form. The star is where a group is joined. Phe(4-NO2) = N[CH](Cc1ccc([N+](=O)[O-])cc1)C(=O)O; Boc = CC(C)(C)OC(=O)*

What was measured:
Assay in all cases: NCI tumour cell line growth inhibition, 48 h
EKVX NSCLC = tested on: EKVX NSCLC
HCT-116 colon = tested on: HCT-116 colon
HL-60(TB) leukemia = tested on: HL-60(TB) leukemia
M14 melanoma = tested on: M14 melanoma
NCI-H522 lung = tested on: NCI-H522 lung
OVCAR-3 ovarian = tested on: OVCAR-3 ovarian
OVCAR-5 ovarian = tested on: OVCAR-5 ovarian
RPMI-8226 leukemia = tested on: RPMI-8226 leukemia
SW-620 colon = tested on: SW-620 colon
LOX IMVI melanoma = tested on: LOX IMVI melanoma

Row | SMILES | TGI (EKVX NSCLC) [µM] | TGI (HCT-116 colon) [µM] | TGI (HL-60(TB) leukemia) [µM] | TGI (M14 melanoma) [µM] | TGI (NCI-H522 lung) [µM] | TGI (OVCAR-3 ovarian) [µM] | TGI (OVCAR-5 ovarian) [µM] | TGI (RPMI-8226 leukemia) [µM] | TGI (SW-620 colon) [µM] | GI50 (HCT-116 colon) [µM] | GI50 (HL-60(TB) leukemia) [µM] | GI50 (NCI-H522 lung) [µM] | GI50 (OVCAR-3 ovarian) [µM] | GI50 (OVCAR-5 ovarian) [µM] | GI50 (RPMI-8226 leukemia) [µM] | GI50 (SW-620 colon) [µM] | TGI (LOX IMVI melanoma) [µM] | GI50 (EKVX NSCLC) [µM] | GI50 (LOX IMVI melanoma) [µM] | GI50 (M14 melanoma) [µM]
1 | O=C1c2ccccc2C2(c3ccc(F)cc3)NCCN12 (configuration not stated) | > 100 | > 100 | > 100 | > 100 | > 100 | > 100 | > 100 | > 100 | > 100 | – | – | – | – | – | – | – | – | – | – | –
2 | COc1cc2nc(N3CCC[C@H](NC4=CC(=O)c5ccccc5C4=O)C3)nc(N)c2cc1OC | – | 4.81 | 4.04 | – | 3.58 | 3.43 | 4 | 4.84 | 3.32 | 1.64 | 1.94 | 1.83 | 1.89 | 2.05 | 1.98 | 1.5 | – | – | – | –
3 | O=C1C=CC(=O)c2c(O)c(N3CCOCC3)c(Cl)c(O)c21 | 2.79 | 0.403 | – | 0.358 | 0.83 | 1.31 | 1.76 | > 10 | 0.351 | – | – | – | – | – | – | – | 0.419 | – | – | –
4 | COC(=O)C1C(=O)CC(C)(O)C(C(=O)OC)C1c1ccc(N(C)C)cc1 (configuration not stated) | > 100 | 21 | > 100 | – | > 100 | > 100 | > 100 | – | > 100 | – | – | – | – | – | – | – | 24.4 | – | – | –
5 | Cc1c(OCc2cccc3ccccc23)ccc2c(=O)cc(SCCN3CCOCC3)oc12 | > 100 | > 100 | > 100 | > 100 | > 100 | > 100 | > 100 | – | > 100 | – | – | – | – | – | – | – | > 100 | – | – | –
6 | COC(=O)C(Cc1c[nH]c2ccccc12)NC(=O)C(Cc1c[nH]c2ccccc12)NC(=O)C(Cc1c[nH]c2ccccc12)NC(=O)C(Cc1c[nH]c2ccccc12)NC(=O)C(Cc1c[nH]c2ccccc12)NC(=O)C(Cc1c[nH]c2ccccc12)NC(=O)C(Cc1c[nH]c2ccccc12)NC(=O)OC(C)(C)C (configuration not stated) (Boc-WWWWWWW-OMe; configuration not given here) | – | > 100 | > 100 | 58.9 | > 100 | > 100 | > 100 | > 100 | > 100 | – | – | – | – | – | – | – | > 100 | – | – | –
7 | Cc1nc2ccc(Br)cc2c(=O)n1-c1ccc(N)cc1 | > 100 | > 100 | > 100 | > 100 | – | > 100 | > 100 | – | > 100 | – | – | – | – | – | – | – | > 100 | – | – | –
8 | COc1ccc(OC)c2c(C)ccnc12 | > 100 | > 100 | – | 34.3 | 21.8 | 26 | > 100 | > 100 | > 85.6 | – | – | – | – | – | – | – | 46.5 | – | – | –
9 | O=C1C=C(N2CCN(c3ncccn3)CC2)C(=O)c2c(O)ccc(O)c21 | > 100 | > 100 | > 100 | > 100 | > 100 | > 100 | > 100 | – | > 100 | – | – | – | – | – | – | – | > 100 | – | – | –
10 | Cn1c2ccccc2n2c3ncccc3c(=O)cc12 | > 100 | 85.9 | – | > 100 | > 100 | > 100 | > 100 | > 100 | > 100 | – | – | – | – | – | – | – | > 100 | – | – | –
11 | CCOC(=O)CCC(NC(=O)C(Cc1ccc([N+](=O)[O-])cc1)NC(=O)OC(C)(C)C)C(=O)NC(CCC(=O)OCC)C(=O)OCC (configuration not stated) (Boc-[Phe(4-NO2)]-Glu(OEt)-Glu(OEt)-OEt; configuration not given here) | – | 38.5 | 44 | 35.9 | – | – | 46.3 | 43.3 | 40.2 | – | – | – | – | – | – | – | – | – | – | –
12 | O=C1CCCCC/C1=C\c1cccc(F)c1 | > 100 | > 100 | > 100 | > 100 | – | > 100 | > 100 | 97.5 | > 100 | – | – | – | – | – | – | – | – | – | – | –
13 | O=[N+]([O-])c1ccc(N2N=C(c3c(O)ccc4ccccc34)CC2c2ccc(Cl)cc2)c([N+](=O)[O-])c1 (configuration not stated) | – | 37.2 | – | 71 | > 100 | > 100 | > 100 | > 100 | > 100 | – | – | – | – | – | – | – | – | – | – | –
14 | O=C(O)Cn1c2c(c3c1-c1ccccc1C3=O)C(=O)CCC2 | > 100 | > 100 | > 100 | > 100 | > 100 | > 100 | > 100 | – | > 100 | > 100 | > 100 | > 100 | > 100 | > 100 | – | > 100 | > 100 | > 100 | > 100 | > 100
15 | O=c1[nH]nc(-c2ccccc2)c2[nH]c3c(c12)Cc1ccccc1-3 | > 100 | > 100 | 7.48 | > 100 | – | > 49 | > 100 | > 28.4 | > 100 | – | – | – | – | – | – | – | > 100 | – | – | –
16 | COc1cccc(C(C#N)NNC(=O)c2c(Cl)c(Cl)c(Cl)c(Cl)c2-c2nc3ccc(C(=O)c4ccccc4)cc3[nH]2)c1O (configuration not stated) | > 100 | > 100 | > 100 | 25.1 | – | – | 70.1 | > 100 | > 100 | – | – | – | – | – | – | – | > 100 | – | – | –
17 | CCC1=C(C[C@H]2NCCc3cc(OC)c(OC)cc32)C[C@H]2c3cc(OC)c(OC)cc3CCN2C1 | 0.175 | 0.0745 | 0.0765 | 0.069 | 0.0688 | 0.158 | 0.49 | 0.229 | 11.3 | – | – | – | – | – | – | – | – | – | – | –
18 | Cc1ccc(-n2nncc2[Si](C)(C)C)s1 | – | > 100 | – | > 100 | > 100 | > 100 | > 100 | > 100 | > 100 | – | – | – | – | – | – | – | > 100 | – | – | –
19 | Cc1cc(N2CCCCC2)nc2ccc(Cc3ccc4nc(N5CCCCC5)cc(C)c4c3)cc12 | > 100 | > 100 | – | > 100 | > 100 | > 100 | > 100 | > 100 | > 100 | – | – | – | – | – | – | – | > 100 | – | – | –
20 | Oc1ccc2ccccc2c1OCc1nnc(CCCCCCCCc2nnc(COc3c(O)ccc4ccccc34)n2Nc2ccccc2)n1Nc1ccccc1 | > 76.8 | 26 | – | 44.7 | 26.6 | 32.1 | > 95.9 | > 100 | > 100 | – | – | – | – | – | – | – | – | – | – | –
21 | Nc1ccc2c(=O)cc(-c3ccc(Br)s3)[nH]c2n1 | > 100 | > 100 | – | 45.3 | > 23.1 | > 100 | > 100 | > 100 | > 100 | – | – | – | – | – | – | – | > 100 | – | – | –
